One series concerns adenine fibrils. Description: ThT assay of adenine self-assembly inhibition in vitro. Particulars: for amyloids staining (ThT, end point): adenine 8 mg/ml in PBS with inhibitor. As to the method:
Adenine was dissolved at 90° C. in PBS to a final concentration of 8 mg/ml and mixed with the indicated inhibitor, at the indicated concentrations, or with PBS as a control, followed by addition of ThT in PBS. ThT emission data at 480 nm (excitation at 450 nm) were measured at the end point.
Adenine was dissolved to a final concentration of 8 mg/ml at 90° C. in PBS. The solution was plated on a 96-well black plate and mixed with the inhibitor baicalein at the stated concentration, and with 20 μm ThT (final concentration). Fluorescence (excitation at 450 nm, emission at 480 nm) was recorded over time using a Tecan™ Infinite® 200 PRO plate reader. Data processing was performed using the OriginLab software.
To further examine if the compounds specifically target the adenosine amyloid-like structures. the compounds were tested using adenine in-vitro aggregation assay. Adenine was self-assembled with and without the inhibitors and stained with the amyloids dye, Thioflavin T (ThT). […] More specifically. Adenosine (30 mg/mL) and guanosine (3 mg/ml) were dissolved in PBS at 90° C., followed by the addition of ThT at final concentration of 20 μM. ThT emission data at 480 nm (excitation at 450 nm) was measured over time. TEM images show elongated adenosine fibrils (10 mg/mL) and guanosine fibrils (1 mg/mL) (FIGS. 34A and 34B, respectively). ThT fluorescence assay of adenosine and guanosine assemblies, are shown by FIGS. 34C, and 34D respectively.

The test system of series [1] is adenosine aggregates in ADA deficient LCLs. Description: Aggregation assay (Proteostat, FACS) on ADA deficient LCLs. As to conditions: patient derived lymphoblastoids, adenosine, 19 concentrations from 50 μM to 0.003 μM. It is filed as cell-based, human. As to the method:
24 hours after seeding in full medium cells were washed with medium without serum and placed in medium without serum. Following 72 hours of incubation with or without Adenosine (A9251 SIGMA) (200 ug/ml), cells were washed with PBS and stained for adenosine aggregates with Proteostat dye (ENZ-51023-KP002). Proteostat concentration was 1:3000 of diluted stock. Following 15 minutes' incubation, cells were washed with PBS and mean fluorescence was measured with FACS.
Cells were treated with adenosine alone or with adenosine with compounds. Compound activity was tested in 19 concentrations in range from 50 uM to 0.003 uM.
Readouts: Proteostat Fluorescence intensity was measured with FACS at 2 excitation wavelengths: 488 nm and 550 nm. Emission wavelength was 600 nm.
24 hours after seeding in 96 round bottom plates in full medium cells were washed once with medium without serum and placed in medium without serum. Following 72 hours of incubation with or without Adenosine (200 ug/ml) and with or without purpurin (2 uM), cells were washed once with PBS and stained for adenosine aggregates with Proteostat dye (Enzo Life Sciences). Proteostat concentration was 1:4000 of diluted stock. Following 15 minutes incubation, cells were washed with PBS and mean flow cytometry was preformed using Stratedigm S1000EXi and the CellCapTure software (Stratedigm, San Jose, Calif.). Analyses were performed using FlowJo software (TreeStar, version 10).
For quantification of intracellular adenosine aggregates by FACS analyses, 100,000 cells were seeded in 96 well plates in full medium. After 24 hours, cells were centrifuged, washed once and added with serum free medium with or without Adenosine (200 μg/ml). After incubation of 72 hours cells were washed with PBS and stained for adenosine aggregates with Proteostat dye. Following 15 minutes incubation, cells were washed with PBS and mean fluorescence was measured with FACS. Mean cell fluorescence of every cell line was normalized to its signal without adenosine and data is presented as percentage of aggregates.

The next series addresses CYP2C9 (Homo sapiens, UniProt P11712). Particulars: general description; cited from earlier work.
A further series has as its target estrogen receptor (Homo sapiens, UniProt P03372). Particulars: general description; cited from earlier work.
In series [2] the test system is RB857 (PAH-1 mutant) and N2 (WT) worms. Description: C. elegans model for PKU. Particulars: 100 mM phenylalanine in minimal media, Baicalein added. It is filed as in vivo, Caenorhabditis elegans. The method, then: (§1) Wild-type N2, RB857 and NL2099 worms were obtained from the Caenorhabditis Genetics Center. RNAi clones was obtained from the Ahringer RNAi library as previously described [Fisher A L, et al., J. Biol. Chem. 283: 9127-9135(2008)]. Worms were grown on NGM media without peptone and the metabolites were added into a boiling media. Baicalein and EGCG were added to a media after cooled down to 45 degrees.
To study PKU in C. elegans model, a strain was used with mutation in the PAH-1 gene (RB857)]. […] Next, the effect of one of the previously identified hits i.e. baicalein was examined on the development of worms. The life cycle of C. elegans is comprised of the embryonic stage, four larval stages (L1-L4) and adulthood. The end of each larval stage is marked with a molt, during which a new, stage-specific cuticle is synthesized and the old one is shed.

The test system of a further series is lipoxygenases. As to conditions: general description; cited from earlier work.
Another series relates to GABAA receptor. Particulars: general description; cited from earlier work.
The test system of a further series is aah1Δapt1Δ strain. Briefly: Yeast growth assay of adenine salvage mutant with adenine feeding. It is filed as cell-based, Saccharomyces cerevisiae. The method, then:
(§2) Strains were grown over night at 30° C. in SD medium without adenine. For spotting assays, strains were diluted to 6.25*10^7 cells/mL and were then 5-fold serially diluted and spotted on SD media with the indicated concentrations of adenine or TA (Sigma-Aldrich). Plates were incubated at 30° C. for 2 days. […] For OD600 measurements, strains were diluted to OD600 0.01, 200 μL of cells were platted on 96 wells plates and incubated at 30° C. for 25 hours with continuous shaking. OD600 was measured using Tecan™ SPARK 10M plate reader.
For the percentage of growth analysis (FIG. 10B and FIG. 13A), OD600 was measured when cells reached log phase. The percentage of growth represents the growth with TA compared to the growth without TA.

In the next series the test system is fah-1 RNAi treated worms. Briefly: C. elegans model for Tyrosinemia (fah-1 RNAi). The series is classed as in vivo, Caenorhabditis elegans. Particulars: tyrosine added to fah-1 silenced worms. The method, then:
as §1
Mutations in different enzymes that are involved in the tyrosine degradation pathway are responsible for different types of Tyrosinemia. The tyrosine degradation pathway in mammals and C. elegans in conserved and the most severe is type I Tyrosinemia, which is caused by mutations affecting the last enzyme in the pathway, fumarylacetoacetate hydrolase (FAH). To study Tyrosinemia in C. elegans model, an RNAi was used that specifically silences the fumarylacetoacetate hydrolase (fah-1), as was previously reported (K10C4.2). RNAi directed against fah-1 causes severe phenotype of reduced size, impaired fertility and reduction of total number of viable worms (FIG. 32).

For another series, the system named is aro3Δ mutant. Description: Yeast growth assay of aro3Δ mutant with tyrosine feeding. It is filed as cell-based, Saccharomyces cerevisiae. As to conditions: 4a.a SD medium with tyrosine. As to the method:
as §2
The focus was put on a strain with a deletion of the ARO3 gene in which a significant decrease in cellular growth was observed upon tyrosine feeding (see FIG. 21). The inventors aimed to determine whether the toxic effect was influenced by different levels of tyrosine. Thus, the cellular growth of wild-type and the aro3Δ mutant was examined by serial dilutions on selective plates that were supplemented with different concentrations of tyrosine (FIG. 21A). In addition, cellular growth was also examined by measuring the turbidity of the medium upon addition of the indicated concentration of tyrosine (FIG. 21B). […] Thus, cell growth is affected by tyrosine levels in a dose-dependent manner which further supports the notion that the toxicity in the aro3Δ mutant results from the presence of tyrosine.
In order to examine the effect of EGCG on cell growth, the aro3Δ mutant was spotted on 4a.a SD plates that contained tyrosine alone or tyrosine with different concentrations of EGCG. […] Thus, the lag phase in the presence of EGCG was nearly the same as cells unexposed to tyrosine, indicating the potent ability of EGCG to eliminate the tyrosine sensitivity of the aro3Δ mutant. […] Next, the inventors aimed to gain additional insights into the effect of EGCG on the amyloid-like fibrils formed by the accumulation of tyrosine in the aro3Δ mutant cells. For that purpose, cells were stained with the amyloid-specific dye ProteoStat®, and FACS was applied to detect tyrosine aggregates. […] (FIG. 25).

For the next series, the system named is cys4Δ strain. Briefly: Yeast growth assay of cys4Δ mutant with homocysteine. It is filed as cell-based, Saccharomyces cerevisiae. As to conditions: compared to the wild-type strain, 20, 40, 80 mg/L. As to the method: FIG. 27E: WT and cys4Δ strains diluted to OD600 0.01 were grown in SD media containing 13 mg/L cysteine and 80 mg/L homocysteine in the under the indicated conditions. 0.3 mM TA was added to the samples at different OD600. The percentage of growth represents the growth the indicated condition compared to the growth of WT without TA. *P<0.05 (Student's t-test).
Homocystinuria results from cystathionine beta synthase (CBS) deficiency, leading to excess of Hcy. A knockout mutation in CYS4, the highly-conserved functional yeast ortholog of the human cystathionine beta synthase (CBS) known to be essential for Hcy salvage, was therefore generated. Due to the contribution of this enzyme to cysteine biosynthesis, it was first shown that its absence confers cysteine dependence (FIG. 27A). […] To examine whether the observed toxicity was associated with the in vivo formation of amyloid-like assemblies, the cells were stained with the amyloid-specific fluorescent dye ProteoStat which allows to detect intracellular amyloid fibrils. […] Next, to further establish the amyloid-like nature of the aggregates, the fibrillation-modifying polyphenolic compound tannic acid (TA) was used (FIG. 27E).

The next series concerns phenylalanine assemblies. Particulars: reference [4]; cited from earlier work.

The source of these data is US20210381022A1, “INTEGRATED DRUG DISCOVERY PLATFORM FOR INBORN ERROR OF METABOLISM DISORDERS” (RAMOT AT TEL-AVIV UNIVERSITY LTD., priority 2018, published 2021).

CYP2C9, sequence (P11712 whole entry): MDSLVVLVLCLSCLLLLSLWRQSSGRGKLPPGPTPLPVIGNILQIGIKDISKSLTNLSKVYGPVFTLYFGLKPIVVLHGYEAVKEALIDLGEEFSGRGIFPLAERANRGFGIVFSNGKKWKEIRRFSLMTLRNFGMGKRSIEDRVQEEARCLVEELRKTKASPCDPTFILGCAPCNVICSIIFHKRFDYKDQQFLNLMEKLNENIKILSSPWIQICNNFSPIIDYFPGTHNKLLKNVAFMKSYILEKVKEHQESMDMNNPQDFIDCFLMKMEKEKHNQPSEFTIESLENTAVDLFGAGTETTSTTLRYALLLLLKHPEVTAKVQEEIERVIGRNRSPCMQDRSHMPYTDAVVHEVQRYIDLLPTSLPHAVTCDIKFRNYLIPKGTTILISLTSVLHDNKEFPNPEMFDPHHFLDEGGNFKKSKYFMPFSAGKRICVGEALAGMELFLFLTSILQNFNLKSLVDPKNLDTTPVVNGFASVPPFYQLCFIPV
estrogen receptor, sequence (P03372 whole entry, species assumed): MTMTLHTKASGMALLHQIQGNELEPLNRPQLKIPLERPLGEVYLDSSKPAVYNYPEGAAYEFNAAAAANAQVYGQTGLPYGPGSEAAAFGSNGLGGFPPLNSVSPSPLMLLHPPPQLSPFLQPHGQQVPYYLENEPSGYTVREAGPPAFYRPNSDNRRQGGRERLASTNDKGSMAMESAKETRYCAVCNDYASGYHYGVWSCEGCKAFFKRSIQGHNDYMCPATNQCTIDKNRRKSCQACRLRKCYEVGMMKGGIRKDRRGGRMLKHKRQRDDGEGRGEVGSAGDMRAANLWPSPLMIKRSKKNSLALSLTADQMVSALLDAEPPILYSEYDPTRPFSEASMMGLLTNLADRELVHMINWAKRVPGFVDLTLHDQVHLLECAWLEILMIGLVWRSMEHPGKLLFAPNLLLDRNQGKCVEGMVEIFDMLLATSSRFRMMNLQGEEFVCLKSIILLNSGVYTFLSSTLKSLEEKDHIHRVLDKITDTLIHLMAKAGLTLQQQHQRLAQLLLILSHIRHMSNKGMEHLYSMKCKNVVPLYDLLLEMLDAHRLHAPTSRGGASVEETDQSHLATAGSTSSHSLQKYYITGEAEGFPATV

As for `O=C1c2ccc(O)c(O)c2C(=O)c2c(O)ccc(O)c21` [Quinalizarin, 1,2,5,8-Tetrahydroxyanthracene-9,10-dione], the “amyloids staining (ThT, end point)” value with adenine fibrils is reported as “significantly reduced the amyloids staining”. Moreover, the “formation of adenosine aggregates (aggregation level, Proteostat staining)” value (shortened to “formation of adenosine aggregates”) in series [1] is given as “significantly reduce the aggregation level”; in [1] (listed as quinalizarin) it was “inhibited the formation of these aggregates”.

Regarding `O=c1cc(-c2ccccc2)oc2cc(O)c(O)c(O)c12` [Baicalein, 5,6,7-Trihydroxy-2-phenyl-chromen-4-one], the “inhibition of CYP2C9” value on CYP2C9 is recorded as “inhibitor”. Also, in the series on adenine fibrils (8 mg/ml adenine, baicalein 5, 10, 100, 500 μM), the “adenine self-assembly in vitro (ThT fluorescence over time)” value is given as “dose-dependent inhibition of adenine self-assembly in vitro”. Moreover, in the series on adenine fibrils, the “amyloids staining (ThT, end point)” value is reported as “significantly reduced the amyloids staining”. Besides, the “activity at the estrogen receptor” value at estrogen receptor is listed as “antagonist”. For the same molecule, in series [2] (N2 and RB857), the “total number of worms” value is listed as “beneficial effect on both strains”. Moreover, the “development of worms (reaching adulthood)” value in [2] (RB857 and WT) is given as “dramatic beneficial effect on both strains”. In addition, the “inhibition of certain types of lipoxygenases” value with lipoxygenases is recorded as “inhibit”. Also, the “modulation of the benzodiazepine site and/or a non-benzodiazepine site of the GABAA receptor” value in the series on GABAA receptor was “positive allosteric modulator”. Further, the yeast cell growth result in the series with aah1Δapt1Δ strain (2 mg/L adenine, baicalein 2.5, 5, 10 μM) was “significant effect on yeast cell growth”. In addition, the “formation of adenosine aggregates” value in series [1] is given as “significantly reduce the aggregation level”; in series [1] (listed as baicalein) it was “inhibited the formation of these aggregates”.

For the molecule `Nc1ncnc2nc[nH]c12` [adenine, Adenine], the “cell growth with increasing adenine levels in the medium” value in the series on aah1Δapt1Δ strain (SD medium, adenine up to 40 mg/L) is listed as “decreased cell growth in a dose-dependent manner”.

Take `N[C@@H](Cc1ccc(O)cc1)C(=O)O` [tyrosine]: the “size, fertility and total number of viable worms” value in the series on fah-1 RNAi treated worms is listed as “severe decline in all the observed phenotypes”. In addition, in the series on aro3Δ mutant, the “growth of aro3Δ mutant with increasing tyrosine concentration” value is recorded as “increase of growth inhibition”.

In the case of `O=C1c2ccccc2C(=O)c2c1ccc(O)c2O` [Alizarin, 1,2-Dihydroxyanthracene-9,10-dione], the “formation of adenosine aggregates” value in [1] is “significantly reduce the aggregation level”; in series [1] (listed as alizarin) it was “inhibited the formation of these aggregates”.

`N[C@@H](CCS)C(=O)O` [Hcy, homocysteine]: in the series with cys4Δ strain, the “growth of CYS4 mutant with Hcy in the growth medium” value was “sensitivity”.

Consider `O=C(O)[C@H]1O[C@@H](Oc2cc3oc(-c4ccccc4)cc(=O)c3c(O)c2O)[C@H](O)[C@@H](O)[C@@H]1O` [baicalin, reference compound], for which the “modulation of the benzodiazepine site and/or a non-benzodiazepine site of the GABAA receptor” value in the series on GABAA receptor was “positive allosteric modulator”.

On to `C[C@H]1c2cccc(O)c2C(=O)C2=C(O)[C@]3(O)C(=O)C(C(N)=O)=C(O)[C@@H](N(C)C)[C@@H]3[C@@H](O)[C@@H]21` [doxycycline], for which the “phenylalanine aggregation and cytotoxicity of the assemblies in vitro” value in the series on phenylalanine assemblies was “counteract”.
